Patent publication EP0044212B1, “Herbicidal o-alkylsulfonyloxy- and o-alkylsulfonylamino-benzenesulfonamides” (E.I. DU PONT DE NEMOURS AND COMPANY, priority 1980, dated 1982)

Legend:
Crabgrass [1] = test: Test B pre-emergence on Fallsington silt loam; format: in vivo, Digitaria sanguinalis; design: scale not given here; conditions: 28 days
Text: (§1) Two plastic bulb pans were filled with fertilized and limed Fallsington silt loam soil. One pan was planted with corn, sorghum, Kentucky bluegrass and several grassy weeds. The other pan was planted with cotton, soybeans, purple nutsedge (Cyperus rotundus), and several broadleaf weeds. The following grassy and broadleaf weeds were planted: crabgrass (Digitaria sanguinalis), barnyardgrass (Echinochloa crusgalli), wild oats (Avena fatua), johnsongrass (Sorghum halepense), dallisgrass (Paspalum dilatatum), giant foxtail (Setaria faberii), cheatgrass (Bromus secalinus), mustard (Brassica arvensis), cocklebur (Xanthium pensylvanicum), pigweed (Amaranthus retroflexus), morningglory (Ipomoea hederacea), cassia (Cassia tora), teaweed (Sida spinosa), velvetleaf (Abutilon theophrasti), and jimsonweed (Datura stramonium). A 12.5 cm diameter plastic pot was also filed with prepared soil and planted with rice and wheat. Another 12.5 cm pot was planted with sugarbeets. The above four containers were treated pre- emergence with several test compounds within the scope of the invention.
(§2) Twenty-eight days after treatment, the plants were evaluated and visually rated for response to the chemical treatments utilizing the rating system described previously for Test A. The data are summarized in Table B.

Barnyardgrass [2] = test: Test B pre-emergence on Fallsington silt loam; format: in vivo, Echinochloa crusgalli; conditions: 28 days
Text: as §1, §2

Wild Oats [3] = test: Test B pre-emergence on Fallsington silt loam; format: in vivo, Avena fatua; design: scale not given here; conditions: 28 days
Text: as §1, §2

Johnsongrass = test: Test B pre-emergence on Fallsington silt loam; format: in vivo, Sorghum halepense; design: scale not given here; conditions: 28 days
Text: as §1, §2

Dallisgrass = test: Test B pre-emergence on Fallsington silt loam; format: in vivo, Paspalum dilatatum; design: scale not given here; conditions: 28 days
Text: as §1, §2

Giant Foxtail [4] = test: Test B pre-emergence on Fallsington silt loam; format: in vivo, Setaria faberii; conditions: 28 days
Text: as §1, §2

Ky. bluegrass = test: Test B pre-emergence on Fallsington silt loam; format: in vivo, Kentucky bluegrass; design: scale not given here; conditions: 28 days
Text: as §1, §2

Cheatgrass = test: Test B pre-emergence on Fallsington silt loam; format: in vivo, Bromus secalinus; conditions: 28 days
Text: as §1, §2

Corn [5] = test: Test B pre-emergence on Fallsington silt loam; format: in vivo; design: scale not given here; conditions: 28 days
Text: as §1, §2

Sugarbeets [6] = test: Test B pre-emergence on Fallsington silt loam; format: in vivo; design: scale not given here; conditions: 28 days
Text: as §1, §2

Wheat [7] = test: Test B pre-emergence on Fallsington silt loam; format: in vivo; design: scale not given here; conditions: 28 days
Text: as §1, §2

Cocklebur = test: Test B pre-emergence on Fallsington silt loam; format: in vivo, Xanthium pensylvanicum; conditions: 28 days
Text: as §1, §2

Rice = test: Test B pre-emergence on Fallsington silt loam; format: in vivo; conditions: 28 days
Text: as §1, §2

Sorghum = test: Test B pre-emergence on Fallsington silt loam; format: in vivo; conditions: 28 days
Text: as §1, §2

Soybean = test: Test B pre-emergence on Fallsington silt loam; format: in vivo, soybeans; conditions: 28 days
Text: as §1, §2

Corn [8] = test: Test F over-the-top soil/foliage treatment; format: in vivo; conditions: soil/foliage spray, ~14 days
Procedure: (§3) The test chemicals, dissolved in a non-phytotoxic solvent, were applied in an overall spray to the foliage and surrounding […] of selected plant species. […] Approximately fourteen days after treatment, all species were visually compared to untreated controls and rated for response to treatment.
(§4) All plant species were seeded in Woodstown sandy loam soil and grown in a greenhouse. The following species were grown in soil contained in plastic pots (25 cm diameter by 13 cm deep): soybeans, cotton, alfalfa, corn, rice, wheet, sorghum, velvetleaf (Abutilon theophrasti), sesbania (Sesbania exaltata), Cassia (Cassia tora), morningglory (Ipomoea hederacea), jimsonweed (Datura stramonium), cocklebur (Xanthium pensylvanicum), crabgrass (Digitaria spp.), nutsedge (Cyperus rotundus), barnyardgrass (Echinochloa crusgalli), giant foxtail (Setaria faberii) and wild oats (Avena fatua). The following species were grown in soil in a paper cup (12 cm diameter by 13 cm deep): sunflower, sugarbeets, and mustard. All plants were sprayed approximately 14 days after planting.

Mustard = test: Test F over-the-top soil/foliage treatment; format: in vivo; conditions: soil/foliage spray, ~14 days
Procedure: as §3, §4

Sugarbeets [9] = test: Test F over-the-top soil/foliage treatment; format: in vivo; conditions: soil/foliage spray, ~14 days
Procedure: as §3, §4

Sunflower = test: Test F over-the-top soil/foliage treatment; format: in vivo; conditions: soil/foliage spray, ~14 days
Procedure: as §3, §4

Sesbania = test: Test F over-the-top soil/foliage treatment; format: in vivo, Sesbania exaltata; design: scale not given here; conditions: soil/foliage spray, ~14 days
Procedure: as §3, §4

Jimsonweed = test: Test F over-the-top soil/foliage treatment; format: in vivo, Datura stramonium; conditions: soil/foliage spray, ~14 days
Procedure: as §3, §4

Crabgrass [10] = test: Test F over-the-top soil/foliage treatment; format: in vivo, Digitaria spp.; design: scale not given here; conditions: soil/foliage spray, ~14 days
Procedure: as §3, §4

Nutsedge = test: Test F over-the-top soil/foliage treatment; format: in vivo, Cyperus rotundus; design: scale not given here; conditions: soil/foliage spray, ~14 days
Procedure: as §3, §4

Barnyardgrass [11] = test: Test F over-the-top soil/foliage treatment; format: in vivo, Echinochloa crusgalli; design: scale not given here; conditions: soil/foliage spray, ~14 days
Procedure: as §3, §4

Wheat [12] = test: Test F over-the-top soil/foliage treatment; format: in vivo, wheet; design: scale not given here; conditions: soil/foliage spray, ~14 days
Procedure: as §3, §4

Giant Foxtail [13] = test: Test F over-the-top soil/foliage treatment; format: in vivo, Setaria faberii; design: scale not given here; conditions: soil/foliage spray, ~14 days
Procedure: as §3, §4

Wild Oats [14] = test: Test F over-the-top soil/foliage treatment; format: in vivo, Avena fatua; design: scale not given here; conditions: soil/foliage spray, ~14 days
Procedure: as §3, §4

Cotton = test: Test B pre-emergence on Fallsington silt loam; format: in vivo; conditions: 0.03 kg/ha, 28 days
Text: as §1, §2

Cassia = test: Test B pre-emergence on Fallsington silt loam; format: in vivo, Cassia tora; conditions: 0.12 kg/ha, 28 days
Text: as §1, §2

## CCCS(=O)(=O)Oc1ccccc1S(=O)(=O)NC(=O)Nc1nc(C)nc(OC)n1 [Compound 39, 2-hydroxy-N-[(4-methoxy-6-methyl-1,3,5-triazin-2-yl)aminocarbonyl]benzenesulfonamide, 1-propanesulfonate]
Crabgrass [1]; 0.06 kg/ha
  Crabgrass response rating: 2G
Crabgrass [1]; 0.25 kg/ha
  Crabgrass response rating: 2G
Barnyardgrass [2]; 0.06 kg/ha
  Barnyardgrass response rating: 4G
Barnyardgrass [2]; 0.25 kg/ha
  Barnyardgrass response rating: 5G
Wild Oats [3]; 0.06 kg/ha
  Wild Oats response rating: 3G
Wild Oats [3]; 0.25 kg/ha
  Wild Oats response rating: 3G
Johnsongrass; 0.06 kg/ha
  Johnsongrass response rating: 4G
Johnsongrass; 0.25 kg/ha
  Johnsongrass response rating: 3G
Dallisgrass; 0.06 kg/ha
  Dallisgrass response rating: 3G
Dallisgrass; 0.25 kg/ha
  Dallisgrass response rating: 0
Giant Foxtail [4]; 0.06 kg/ha
  Giant Foxtail response rating: 0
Giant Foxtail [4]; 0.25 kg/ha
  Giant Foxtail response rating: 2G
Ky. bluegrass; 0.06 kg/ha
  Ky. bluegrass response rating: 2G
Ky. bluegrass; 0.25 kg/ha
  Ky. bluegrass response rating: 4G
Cheatgrass; 0.06 kg/ha
  Cheatgrass response rating: 0
Cheatgrass; 0.25 kg/ha
  Cheatgrass response rating: 3G
Corn [5]; 0.06 kg/ha
  Corn response rating: 2G
Corn [5]; 0.25 kg/ha
  Corn response rating: 4G
Sugarbeets [6]; 0.25 kg/ha
  Sugarbeets response rating: 10C
Wheat [7]; 0.06 kg/ha
  Wheat response rating: 0
Wheat [7]; 0.25 kg/ha
  Wheat response rating: 0
Cocklebur; 0.25 kg/ha
  Cocklebur response rating: 10C
Rice; 0.06 kg/ha
  Rice response rating: 0
Rice; 0.25 kg/ha
  Rice response rating: 0
Sorghum; 0.06 kg/ha
  Sorghum response rating: 4G
Soybean; 0.06 kg/ha
  Soybean response rating: 3G
Soybean; 0.25 kg/ha
  Soybean response rating: 4G
Corn [8]; 0.007 kg/ha
  Corn response rating: 2G
Corn [8]; 0.06 kg/ha
  Corn response rating: 0
Corn [8]; 0.12 kg/ha
  Corn response rating: 0
Mustard; 0.06 kg/ha
  Mustard response rating: 10C
Mustard; 0.12 kg/ha
  Mustard response rating: 10C
Sugarbeets [9]; 0.06 kg/ha
  Sugarbeets response rating: 10C
Sunflower; 0.015 kg/ha
  Sunflower response rating: 10C
Sunflower; 0.06 kg/ha
  Sunflower response rating: 10C
Sunflower; 0.12 kg/ha
  Sunflower response rating: 10C
Sesbania; 0.12 kg/ha
  Sesbania response rating: 10C
Jimsonweed; 0.12 kg/ha
  Jimsonweed response rating: 0
Crabgrass [10]; 0.007 kg/ha
  Crabgrass response rating: 0
Crabgrass [10]; 0.015 kg/ha
  Crabgrass response rating: 0
Crabgrass [10]; 0.03 kg/ha
  Crabgrass response rating: 0
Crabgrass [10]; 0.06 kg/ha
  Crabgrass response rating: 0
Crabgrass [10]; 0.12 kg/ha
  Crabgrass response rating: 0
Nutsedge; 0.007 kg/ha
  Nutsedge response rating: 5G
Nutsedge; 0.015 kg/ha
  Nutsedge response rating: 0
Nutsedge; 0.03 kg/ha
  Nutsedge response rating: 3G
Nutsedge; 0.06 kg/ha
  Nutsedge response rating: 0
Nutsedge; 0.12 kg/ha
  Nutsedge response rating: 1G
Barnyardgrass [11]; 0.007 kg/ha
  Barnyardgrass response rating: 2G
Barnyardgrass [11]; 0.015 kg/ha
  Barnyardgrass response rating: 0
Barnyardgrass [11]; 0.03 kg/ha
  Barnyardgrass response rating: 3G
Barnyardgrass [11]; 0.06 kg/ha
  Barnyardgrass response rating: 0
Barnyardgrass [11]; 0.12 kg/ha
  Barnyardgrass response rating: 0
Wheat [12]; 0.007 kg/ha
  Wheat response rating: 0
Wheat [12]; 0.015 kg/ha
  Wheat response rating: 0
Wheat [12]; 0.03 kg/ha
  Wheat response rating: 0
Wheat [12]; 0.06 kg/ha
  Wheat response rating: 0
Wheat [12]; 0.12 kg/ha
  Wheat response rating: 0
Giant Foxtail [13]; 0.007 kg/ha
  Giant Foxtail response rating: 1G
Giant Foxtail [13]; 0.03 kg/ha
  Giant Foxtail response rating: 2G
Giant Foxtail [13]; 0.06 kg/ha
  Giant Foxtail response rating: 0
Giant Foxtail [13]; 0.12 kg/ha
  Giant Foxtail response rating: 0
Wild Oats [14]; 0.007 kg/ha
  Wild Oats response rating: 0
Wild Oats [14]; 0.03 kg/ha
  Wild Oats response rating: 2G
Wild Oats [14]; 0.06 kg/ha
  Wild Oats response rating: 0
Wild Oats [14]; 0.12 kg/ha
  Wild Oats response rating: 0

## COc1cc(OC)nc(NC(=O)NS(=O)(=O)c2ccccc2OS(C)(=O)=O)n1 [Compound 1, N-[(4,6-Dimethoxypyrimidin-2-yl)aminocarbonyl]-2-hydroxybenzenesulfonamide, methanesulfonate]
Wild Oats [3]; 0.03 kg/ha
  Wild Oats response rating: 6G
Wild Oats [3]; 0.12 kg/ha
  Wild Oats response rating: 10C
Johnsongrass; 0.12 kg/ha
  Johnsongrass response rating: 10C
Dallisgrass; 0.03 kg/ha
  Dallisgrass response rating: 7G
Ky. bluegrass; 0.12 kg/ha
  Ky. bluegrass response rating: 10C
Sugarbeets [6]; 0.03 kg/ha
  Sugarbeets response rating: 10C
Sugarbeets [6]; 0.12 kg/ha
  Sugarbeets response rating: 10C
Wheat [7]; 0.03 kg/ha
  Wheat response rating: 0
Wheat [7]; 0.12 kg/ha
  Wheat response rating: 3G
Cocklebur; 0.03 kg/ha
  Cocklebur response rating: 6G
Cotton
  Cotton response rating: 8G
Sorghum; 0.12 kg/ha
  Sorghum response rating: 10C
Cassia
  Cassia response rating: 10C
Corn [8]; 0.06 kg/ha
  Corn response rating: 10C
Mustard; 0.003 kg/ha
  Mustard response rating: 10C
Mustard; 0.007 kg/ha
  Mustard response rating: 10C
Sugarbeets [9]; 0.007 kg/ha
  Sugarbeets response rating: 10C
Sunflower; 0.003 kg/ha
  Sunflower response rating: 10C
Sunflower; 0.007 kg/ha
  Sunflower response rating: 10C
Sesbania; 0.003 kg/ha
  Sesbania response rating: 10C
Sesbania; 0.007 kg/ha
  Sesbania response rating: 10C
Sesbania; 0.015 kg/ha
  Sesbania response rating: 9C
Sesbania; 0.06 kg/ha
  Sesbania response rating: 9C
Jimsonweed; 0.003 kg/ha
  Jimsonweed response rating: 0
Jimsonweed; 0.007 kg/ha
  Jimsonweed response rating: 0
Jimsonweed; 0.06 kg/ha
  Jimsonweed response rating: 9C
Crabgrass [10]; 0.003 kg/ha
  Crabgrass response rating: 0
Crabgrass [10]; 0.007 kg/ha
  Crabgrass response rating: 5G
Crabgrass [10]; 0.015 kg/ha
  Crabgrass response rating: 2C
Nutsedge; 0.003 kg/ha
  Nutsedge response rating: 3G
Nutsedge; 0.007 kg/ha
  Nutsedge response rating: 5G
Nutsedge; 0.015 kg/ha
  Nutsedge response rating: 10C
Nutsedge; 0.06 kg/ha
  Nutsedge response rating: 10C
Barnyardgrass [11]; 0.015 kg/ha
  Barnyardgrass response rating: 10C
Barnyardgrass [11]; 0.06 kg/ha
  Barnyardgrass response rating: 10C
Wheat [12]; 0.003 kg/ha
  Wheat response rating: 1G
Wheat [12]; 0.007 kg/ha
  Wheat response rating: 0
Wheat [12]; 0.015 kg/ha
  Wheat response rating: 0
Wheat [12]; 0.06 kg/ha
  Wheat response rating: 0
Giant Foxtail [13]; 0.003 kg/ha
  Giant Foxtail response rating: 5G
Giant Foxtail [13]; 0.007 kg/ha
  Giant Foxtail response rating: 5G
Wild Oats [14]; 0.003 kg/ha
  Wild Oats response rating: 3G
Wild Oats [14]; 0.007 kg/ha
  Wild Oats response rating: 3G
Wild Oats [14]; 0.015 kg/ha
  Wild Oats response rating: 3G
Wild Oats [14]; 0.06 kg/ha
  Wild Oats response rating: 6G
